Results from publication PMC11643494, “Structure–Activity Relationship Studies in a Series of 2-Aryloxy-N-(pyrimidin-5-yl)acetamide Inhibitors of SLACK Potassium Channels” (Molecules, 2024).
Where two headings read alike, the source gives them in different places. One block for each compound: values may come before it.

Key:
hERG [1] = conditions: Tl+-flux, cited from earlier work
A934T SLACK [2] = conditions: cited from earlier work
WT SLACK [3] = conditions: cited from earlier work
SLACK mutant F364L = tested on: SLACK mutant F364L; parameters: method as in PMID 33859800; conditions: APC; read-out: IC50 versus SLACK mutant F364L; cited from earlier work
human WT SLACK = tested on: human WT SLACK; parameters: method as in PMID 33859800; conditions: APC; read-out: IC50 versus human WT SLACK; cited from earlier work
[4] = parameters: method as in PMID 33859800; conditions: mice; cited from earlier work
Kcnt1^L/L mice = tested on: Kcnt1^L/L mice; parameters: method as in PMID 33859800; conditions: cited from earlier work
SLACK mutant G288S = tested on: SLACK mutant G288S; parameters: method as in PMID 33859800; conditions: APC; read-out: IC50 versus SLACK mutant G288S; cited from earlier work
WT SLACK [5] = tested on: WT SLACK; parameters: method as in PMID 32408169; conditions: whole-cell patch clamp electrophysiology; read-out: IC50 versus WT SLACK; cited from earlier work
hERG (Kv11.1) channel = tested on: hERG (Kv11.1) channel; parameters: method as in PMID 32408169; conditions: 10 µM; cited from earlier work
[6] = tested on: co-cultured cortical neurons and glial cells; parameters: method as in PMID 33143429; conditions: cited from earlier work
WT SLACK [7] = tested on: WT SLACK; parameters: method as in PMID 38782404; conditions: patch clamp; read-out: IC50 versus WT SLACK; cited from earlier work
G288S SLACK [8] = tested on: G288S SLACK; parameters: method as in PMID 38782404; conditions: read-out: IC50 versus G288S SLACK; cited from earlier work
A934T SLACK [9] = tested on: A934T SLACK; parameters: method as in PMID 38782404; conditions: read-out: IC50 versus A934T SLACK; cited from earlier work
KV7.2 = tested on: KV7.2; parameters: method as in PMID 38782404; conditions: cited from earlier work
WT SLICK = tested on: WT SLICK; parameters: method as in PMID 38782404; conditions: read-out: IC50 versus WT SLICK; cited from earlier work
[10] = parameters: method as in PMID 38782404; conditions: human liver microsomes; cited from earlier work
[11] = parameters: method as in PMID 38782404; conditions: cited from earlier work
hERG [12] = tested on: hERG; parameters: method as in PMID 38782404; conditions: cited from earlier work
WT human SLACK = target: T1, WT human SLACK (Homo sapiens, UniProt Q5JUK3); assay: Whole-cell automated patch clamp (APC) in CHO-K1 cells stably expressing WT human SLACK; assay type: cell-based; conditions: for IC50 / WT SLACK inhibition, result in words: APC; for IC50: CHO-K1 cells stably expressing WT human SLACK, averages (n ≥ 3); for SLACK Imax: maximum inhibition at 30 µM test compound standardized to VU0606170 (set at 100%), WT human SLACK; for Fold less potent than hit 10 (SLACK inhibition): ratio of WT SLACK APC IC50 to hit 10; for WT SLACK inhibition, result in words: concentrations 0.125 to 30 µM
T1 construct: host or cells: CHO-K1
T1 sequence (Q5JUK3 1-1235 isoform Q5JUK3-3): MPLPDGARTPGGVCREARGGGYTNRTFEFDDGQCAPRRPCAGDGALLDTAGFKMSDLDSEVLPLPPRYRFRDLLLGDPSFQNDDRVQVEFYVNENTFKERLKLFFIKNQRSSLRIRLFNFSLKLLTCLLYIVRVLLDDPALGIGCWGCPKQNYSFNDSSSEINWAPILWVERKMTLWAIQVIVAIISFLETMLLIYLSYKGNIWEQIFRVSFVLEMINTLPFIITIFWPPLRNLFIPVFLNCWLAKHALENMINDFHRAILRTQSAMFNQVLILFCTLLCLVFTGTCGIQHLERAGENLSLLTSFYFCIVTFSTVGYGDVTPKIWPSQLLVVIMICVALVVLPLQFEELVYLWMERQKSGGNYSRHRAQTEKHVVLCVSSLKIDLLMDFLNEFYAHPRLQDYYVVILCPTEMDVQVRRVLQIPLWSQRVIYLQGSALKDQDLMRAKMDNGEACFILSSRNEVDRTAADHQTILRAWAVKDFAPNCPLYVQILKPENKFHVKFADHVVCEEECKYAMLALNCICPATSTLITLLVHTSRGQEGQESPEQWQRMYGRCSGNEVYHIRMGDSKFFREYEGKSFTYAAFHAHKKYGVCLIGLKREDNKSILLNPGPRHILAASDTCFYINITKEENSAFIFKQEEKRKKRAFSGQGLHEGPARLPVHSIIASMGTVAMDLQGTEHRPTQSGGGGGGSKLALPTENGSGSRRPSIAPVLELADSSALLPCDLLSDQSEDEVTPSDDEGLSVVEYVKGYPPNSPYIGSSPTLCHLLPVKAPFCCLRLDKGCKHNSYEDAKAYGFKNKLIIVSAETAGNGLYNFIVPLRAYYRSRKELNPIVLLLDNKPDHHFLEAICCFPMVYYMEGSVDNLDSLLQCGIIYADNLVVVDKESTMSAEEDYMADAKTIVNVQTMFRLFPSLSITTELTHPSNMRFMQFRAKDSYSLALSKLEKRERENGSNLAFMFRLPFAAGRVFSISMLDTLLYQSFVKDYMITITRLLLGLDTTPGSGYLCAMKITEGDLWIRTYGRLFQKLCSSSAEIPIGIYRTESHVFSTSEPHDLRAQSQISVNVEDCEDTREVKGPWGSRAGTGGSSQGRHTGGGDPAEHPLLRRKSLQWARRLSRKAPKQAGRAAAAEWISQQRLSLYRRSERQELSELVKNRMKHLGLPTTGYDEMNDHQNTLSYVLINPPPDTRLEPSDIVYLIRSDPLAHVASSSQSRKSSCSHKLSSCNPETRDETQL
Procedure: Using concentrations ranging from 0.125 to 30 µM in half-log steps, a concentration–response relationship was generated for each new analog using our APC assay in CHO-K1 cells stably expressing WT SLACK. A minimum of three cells, i.e., replicates, were collected per concentration for each analog.
Automated patch clamp recording was performed with a SyncroPatch 768 PE system (Nanion, Munich, Germany) as previously described. Whole-cell recordings were performed at room temperature. Cells were harvested by first washing with PBS without Mg^2+ or Ca^2+ (Gibco, Billings, MT, USA) to remove cell culture medium, followed by dissociation with TryPLE (Gibco, Billings, MT, USA). Cells were then resuspended and diluted to 200,000 cells/mL in external solution. External solution contained 105 mM NaCl, 4 mM KCl, 1 mM MgCl2, 5 mM CaCl2, 10 mM HEPES, 40 mM N-Methyl-D-glucamine chloride, titrated to pH 7.4 with NaOH and osmolarity of 300 mOsm/kg; internal solution contained 70 mM NaCl, 70 mM KF, 10 mM KCl, 5 mM EGTA, 5mM HEPES, titrated to a pH 7.2 with KOH and osmolarity of 295 mOsm/kg.
The APC protocol was set as following: Cells were held at […] −80 mV for 100 ms, then a ramp protocol was performed from −100 mV to 80 mV at 0.4 mV/ms, hold the cell at −80 mV for another 100 ms, then steps were performed at −20 mV, 0 mV, +20 mV, +40 mV, and +60 mV for 100 ms of each step. Whole-cell currents were measured at 0 mV and normalized to current after external buffer addition.

SLACK = tested on: SLACK; parameters: method as in earlier work; conditions: patent application, no specific values reported; cited from earlier work
G288S SLACK [13] = tested on: G288S SLACK; parameters: method as in PMID 38893312; conditions: whole-cell APC; read-out: IC50 versus G288S SLACK; cited from earlier work
[14] = whole-cell patch clamp electrophysiology, read-out: IC50 versus WT SLACK

Compound: Cc1ccc2cccc(S(=O)(=O)N3CC(c4nc(-c5ccc(F)cc5)no4)C3)c2n1 [Compound 7]
hERG activity, result in words (hERG [1]; 10 µM): inactive | A934T SLACK inhibition, result in words (A934T SLACK [2]): potent inhibitor | IC50 (WT SLACK [3]; whole-cell APC, read-out: APC IC50 versus WT SLACK): 320 nM

Compound: C[C@H](NC(=O)c1cc(C(F)(F)F)nn1C)c1nc(-c2ccnc(C(F)(F)F)c2)no1 [Compound 4]
IC50 (SLACK mutant F364L): 1800 nM | IC50 (human WT SLACK): […] | bioavailability [4]: complete bioavailability | clearance [4]: 2.0 mL/min/kg | anticonvulsant effects (Kcnt1^L/L mice): anticonvulsant effects were observed | IC50 (SLACK mutant G288S): 220 nM

Compound: Cc1cccc(CC(=O)Nc2cnn(-c3cccc(C(=O)NCc4ccccc4-n4cncn4)c3)c2)c1 [Compound 1]
IC50 (WT SLACK [5]): 3200 nM | hERG (Kv11.1) channel blockade (hERG (Kv11.1) channel): almost completely blocked the channel

Compound: COc1ccc(Cl)cc1NC(=O)CN1CCN(S(=O)(=O)N2CCC(C)CC2)CC1 [Compound 6]
IC50 (hERG [1]): > 10000 nM | IC50 (WT SLACK [3]; [14]): 1700 nM | frequency of calcium (Ca2+) oscillations, result in words [6]: inhibiting the frequency of calcium (Ca^2+) oscillations

Compound: O=S(=O)(Nc1ccc2c(c1)CCN2Cc1ccc(C(F)(F)F)cc1C(F)(F)F)C1CCCCC1 [Compound 9]
IC50 (WT SLACK [7]): 200 nM | IC50 (G288S SLACK [8]): 300 nM | IC50 (A934T SLACK [9]): 280 nM | activity on KV7.2 channels, result in words (KV7.2): no activity | IC50 (WT SLICK): 1300 nM | metabolic stability (clearance), result in words [10]: low clearance compound | plasma protein binding, result in words [11]: highly bound to plasma proteins | activity on hERG channels, result in words (hERG [12]): no activity

IC50 (WT human SLACK): 2800 nM | SLACK Imax (WT human SLACK): 101% | Fold less potent than hit 10 (SLACK inhibition) (WT human SLACK): approximately 2 fold
Compound: CC(C)(Oc1ccc(C(F)(F)F)cc1)C(=O)Nc1cnc(Oc2ccccc2F)nc1 [Analog 55]

IC50 (WT human SLACK): 4900 nM | Fold less active than pyridine 86 (WT human SLACK; WT SLACK APC IC50): 1.6 fold | SLACK Imax (WT human SLACK): 92% | Fold less potent than hit 10 (SLACK inhibition) (WT human SLACK): 3.5 fold
Compound: CC(C)(Oc1ccc(Cl)cc1)C(=O)Nc1ccc(Oc2ccccc2F)cc1 [Analog 88]

IC50 (WT human SLACK): 1700 nM
Compound: CC(C)(Oc1ccc(Cl)cc1)C(=O)Nc1cnc(Oc2cccc(C#N)c2)nc1 [Analog 34]

Compound: O=C(N[C@@H]1CCc2cc(Cl)ccc21)c1ccc(S(=O)(=O)N2CCCC2)s1 [Compound 5]
IC50 (SLACK): < 1000 nM | SLACK IC50 (SLACK): less than one micromolar

IC50 (WT human SLACK): 1500 nM | SLACK Imax (WT human SLACK): 101%
Compound: COc1ccccc1Oc1ncc(NC(=O)C(C)(C)Oc2ccc(Cl)cc2)cn1 [Analog 27]

WT SLACK inhibition, result in words (WT human SLACK): only a weak inhibitor
Compound: CNCc1ccc(Cl)cc1 [Analog 80]

Compound: O=C(Nc1cccc(C(F)(F)F)c1)c1ccc(CSc2nnnn2-c2ccccc2)cc1 [Compound 3]
IC50 (WT SLACK [5]): 1600 nM | hERG (Kv11.1) channel blockade (hERG (Kv11.1) channel): 45%

Compound: CCCCN(Cc1ccc(F)cc1)c1nc2c(c(=O)n(Cc3cccc(OC)c3)c(=O)n2C)n1C [Compound 8]
IC50 (G288S SLACK [13]): 710 nM | IC50 (A934T SLACK [2]; whole-cell APC, read-out: IC50 versus A934T SLACK): 590 nM | IC50 (WT SLACK [3]; [14]): 700 nM

Compound: CC(C)(Oc1ccc(S(C)(=O)=O)cc1)C(=O)Nc1cnc(Oc2ccccc2F)nc1 [Analog 60]
WT SLACK inhibition, result in words (WT human SLACK): inactive up to the top concentration of 30 µM

Compound: CC(C)(Oc1ccccc1C(F)(F)F)C(=O)Nc1cnc(Oc2ccccc2F)nc1 [Analog 53]
WT SLACK inhibition, result in words (WT human SLACK): inactive up to the top concentration of 30 µM

Compound: O=C(Nc1cccc(C(F)(F)F)c1)c1ccc2nc(N3C(=O)c4ccccc4C3=O)sc2c1 [Compound 2]
IC50 (WT SLACK [5]): 3000 nM | hERG (Kv11.1) channel blockade (hERG (Kv11.1) channel): 10–20%

IC50 (WT human SLACK): 2700 nM | Fold less potent than hit 10 (SLACK inhibition) (WT human SLACK): ~2 fold
Compound: CC(C)(Nc1ccc(Cl)cc1)C(=O)Nc1cnc(Oc2ccccc2F)nc1 [Analog 69]

Compound: CC(C)(Oc1ccc(Cl)cc1)C(=O)Nc1cnc(Nc2ccccc2F)nc1 [Analog 64]
WT SLACK inhibition, result in words (WT human SLACK): not tolerated

IC50 (WT human SLACK): 1100 nM
Compound: CC(C)(Oc1ccc(Cl)cc1)C(=O)Nc1cnc(Oc2ccc(C#N)cc2)nc1 [Analog 35]

IC50 (WT human SLACK): > 10000 nM | WT SLACK inhibition, result in words (WT human SLACK): only weak inhibitors | SLACK Imax (WT human SLACK): 25%
Compound: CC(C)(Oc1ccccc1F)C(=O)Nc1cnc(Oc2ccccc2F)nc1 [Analog 45]
